In patent US20260191849A1, “PHARMACEUTICAL COMPOSITION FOR TREATMENT OF CANCER” (WIGEN BIOMEDICINE TECHNOLOGY (SHANGHAI) CO., LTD., priority 2022, published 2026):
Like-named read-outs stand apart in the source and are kept apart here.

What was measured:
Type in all cases: cell-based
[1] = tested on: HT29 cells; assay: Combined use of compound 257 with PLK1 inhibitor on HT29 cell viability, 72 h (Biological Example 5); settings: for IC50: Homo sapiens, HT-29, 72 h, HT29 cells
Protocol: (§1) HT29 cells were seeded on a 384-well plate at 3000 cells/well. After overnight adherence culture, DMSO or compound 257 serially diluted in a 1:5 ratio from 5 μM and a PLK1 inhibitor with a specified concentration were added. The cell viability was assessed 72 h after dosing by measuring the intracellular ATP content. The inhibition percentages of viable cells by the compounds were calculated by comparing with the DMSO group, and the IC50 values were also calculated.

[2] = tested on: HT29 cells; assay: Combined use of compound 257 or AMG650 with PLK1 inhibitor on HT29 cell viability, 168 h (Biological Example 7); settings: for Maximum inhibition rate / Minimum inhibition rate / IC50: HT29 cells; for IC50: Homo sapiens, HT-29, 168 h
Protocol: as §1, with “257 or AMG650” for “257”, “400 nM” for “5 μM”, “168” for “72”

[3] = tested on: HCT116 cells; assay: Combined use of compound 257 or AMG650 with PLK1 inhibitor on HCT116 cell viability, 168 h (Biological Example 8)
Protocol: as §1, with “HCT116 cells” for “HT29 cells”, “257 or AMG650” for “257”, “from 10” for “from 5”, “assessed 168” for “assessed 72”

[4] = tested on: HT29 cells; assay: Combined use of compound 257, AMG650 or Compound A with PLK1 inhibitor on HT29 cell viability, 168 h (Biological Example 19); settings: for IC50: Homo sapiens, HT-29, 168 h, HT29 cells, read-out: IC50
Protocol: HT29 cells were seeded on a 384-well plate at 3000 cells/well.

[5] = tested on: HCT116 cells; assay: Combined use of compound 257, AMG650 or Compound A with PLK1 inhibitor on HCT116 cell viability, 168 h (Biological Example 20)
Protocol: as §1, with “HCT116” for “HT29”, “257, AMG650, or Compound A” for “257”, “400 nM” for “5 μM”, “168” for “72”

[6] = tested on: SK-OV-3 cells; assay: Combined use of compound 257 or AMG650 with PLK1 inhibitor on SK-OV-3 cell viability, 168 h (Biological Example 21); settings: 168 h; for IC50: Homo sapiens, SK-OV-3, 168 h, SK-OV-3 cells, read-out: IC50
Protocol: (§2) SK—OV-3 cells were seeded on a 384-well plate at 3000 cells/well. After overnight adherence culture, DMSO or compound 257 or AMG650 serially diluted in a 1:5 ratio from 400 nM and a PLK1 inhibitor with a specified concentration were added. The cell viability was assessed 168 h after dosing by measuring the intracellular ATP content. […] Furthermore, interactions between the drugs were also analyzed using the BLISS independence model, and the results are shown in FIG. 11 and FIG. 12.

[7] = tested on: HT29 cells; assay: Combined use of compound 257 or AMG650 with PLK1 inhibitor (Volasertib) on HT29 cell viability, 168 h (Biological Example 22); settings: 168 h; for IC50: Homo sapiens, HT-29, 168 h, HT29 cells, read-out: IC50
Protocol: as §2, with “HT29” for “SK—OV-3”, “15” for “11”, “16.” for “12.”

IC50 ([1]; BI 2536 0 nM): 13.5 nM | IC50 ([1]; BI 2536 1.25 nM): 9.9 nM | IC50 ([1]; BI 2536 2.5 nM): 6.2 nM | IC50 ([1]; BI 2536 5 nM): 2 nM | IC50 ([1]; BI 2536 10 nM): 0.6 nM | IC50 ([1]; GSK461364 0 nM): 13.5 nM | IC50 ([1]; GSK461364 1.25 nM): 14.3 nM | IC50 ([1]; GSK461364 2.5 nM): 8.8 nM | IC50 ([1]; GSK461364 5 nM): 3.3 nM | IC50 ([1]; GSK461364 10 nM): 0.5 nM | IC50 ([1]; MLN0905 0 nM): 13.1 nM | IC50 ([1]; MLN0905 12.5 nM): 4.7 nM | IC50 ([1]; MLN0905 25 nM): 0.5 nM | IC50 ([1]; Onvansertib 0 nM): 12.7 nM | IC50 ([1]; Onvansertib 12.5 nM): 5.2 nM | IC50 ([1]; Onvansertib 25 nM): 0.8 nM | IC50 ([1]; Rigosertib 0 nM): 14.5 nM | IC50 ([1]; Rigosertib 12.5 nM): 12.2 nM | IC50 ([1]; Rigosertib 25 nM): 15.2 nM | IC50 ([1]; Rigosertib 50 nM): 9.1 nM | IC50 ([1]; Rigosertib 100 nM): 0.4 nM | IC50 ([1]; Ro3280 0 nM): 13.6 nM | IC50 ([1]; Ro3280 12.5 nM): 2.9 nM | IC50 ([1]; Ro3280 25 nM): 0.4 nM | IC50 ([1]; Volasertib 0 nM): 13.1 nM | IC50 ([1]; Volasertib 12.5 nM): 1.1 nM | IC50 ([1]; Volasertib 25 nM): 0.7 nM | IC50 ([2]; Volasertib 0 nM): 14 nM | IC50 ([2]; Volasertib 3.12 nM): 7 nM | IC50 ([2]; Volasertib 6.25 nM): 2.8 nM | IC50 ([3]; HCT116 cells, Volasertib 3.12 nM): > 10000 nM | IC50 ([3]; HCT116 cells, Volasertib 6.25 nM): > 10000 nM | IC50 ([3]; Homo sapiens, HCT-116, HCT116 cells, Volasertib 0 nM): > 10000 nM | IC50 ([4]; CYC140 (Plogosertib) 0.0001 nM): 10.6 nM | IC50 ([4]; CYC140 (Plogosertib) 1.6 nM): 8.3 nM | IC50 ([4]; CYC140 (Plogosertib) 8 nM): 6.9 nM | IC50 ([4]; CYC140 (Plogosertib) 40 nM): 0.9 nM | IC50 ([4]; TAK-960 0.0001 nM): 10.1 nM | IC50 ([4]; TAK-960 1.6 nM): 8.5 nM | IC50 ([4]; TAK-960 8 nM): 1.7 nM | IC50 ([4]; TAK-960 40 nM): 1.7 nM | IC50 ([5]; HCT116 cells, CYC140 (Plogosertib) 1.6 nM): > 400 nM | IC50 ([5]; HCT116 cells, CYC140 (Plogosertib) 8 nM): > 400 nM | IC50 ([5]; HCT116 cells, CYC140 (Plogosertib) 40 nM): > 400 nM | IC50 ([5]; HCT116 cells, TAK-960 0 nM): > 400 nM | IC50 ([5]; HCT116 cells, TAK-960 1.6 nM): > 400 nM | IC50 ([5]; HCT116 cells, TAK-960 8 nM): > 400 nM | IC50 ([5]; HCT116 cells, TAK-960 40 nM): > 400 nM | IC50 ([5]; Homo sapiens, HCT-116, HCT116 cells, CYC140 (Plogosertib) 0 nM): > 400 nM | IC50 ([6]; Volasertib 0.0001 nM): 15.4 nM | IC50 ([6]; Volasertib 3.13 nM): 12.8 nM | IC50 ([6]; Volasertib 6.25 nM): 12.2 nM | IC50 ([6]; Volasertib 12.5 nM): 8.7 nM | IC50 ([6]; Volasertib 25 nM): 5.9 nM | IC50 ([6]; Volasertib 50 nM): 2 nM | IC50 ([7]; Volasertib 0.0001 nM): 10.9 nM | IC50 ([7]; Volasertib 3.13 nM): 7.9 nM | IC50 ([7]; Volasertib 6.25 nM): 5.9 nM | IC50 ([7]; Volasertib 12.5 nM): 2.5 nM | IC50 ([7]; Volasertib 25 nM): 0.4 nM
SMILES: COc1ccc(NC(=O)c2ccc(NS(=O)(=O)CCO)cc2N2CCC3(CC2)CC3)nc1N1CCC(F)(F)CC1 [Compound 257]
inhibitory effect on HT-29 cells, combined use with the PLK1 inhibitor compared with monotherapy ([1]; in words): stronger inhibitory effect | Maximum inhibition rate ([2]; Volasertib 0 nM): 85.3% | Minimum inhibition rate ([2]; Volasertib 0 nM): 3.2% | Maximum inhibition rate ([2]; Volasertib 3.12 nM): 94.6% | Minimum inhibition rate ([2]; Volasertib 3.12 nM): 1.8% | Maximum inhibition rate ([2]; Volasertib 6.25 nM): 94.4% | Minimum inhibition rate ([2]; Volasertib 6.25 nM): 0.5% | inhibitory effect on HT-29 cells, combined use with the PLK1 inhibitor compared with monotherapy ([2]; Volasertib, in words): stronger inhibitory effect | synergistic effect on HCT116 cell viability, combined use with the PLK1 inhibitor ([3]; Volasertib, in words): no significant synergistic effect | inhibitory effect on HT-29 cells, combined use with the PLK1 inhibitor compared with monotherapy ([4]; CYC140 or TAK-960, in words): stronger inhibitory effect | synergistic effect on HCT116 cell viability, combined use with the PLK1 inhibitor ([5]; CYC140 or TAK-960, in words): no significant synergistic effect | anti-proliferative activity against HCT116 cells, monotherapy ([5]; in words): did not exhibit anti-proliferative activity | inhibitory effect on SK-OV-3 cells, combined use with the PLK1 inhibitor compared with monotherapy ([6]; Volasertib, in words): stronger inhibitory effect | inhibitory effect on HT-29 cells, combined use with the PLK1 inhibitor compared with monotherapy ([7]; Volasertib, in words): stronger inhibitory effect
